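Method: 48-hour compound exposure of cells in 96-well plates, five concentrations, linear interpolation of endpoints. Abbreviation: GI50, concentration required for 50% inhibition of growth. TGI: total growth inhibition.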

The text below walks through data of PubChem BioAssay (NCI).

Test systems include SF-268 CNS; TK-10 renal; SK-MEL-28 melanoma; UACC-62 melanoma; HL-60(TB) leukemia; CCRF-CEM leukemia; COLO 205 colon; M14 melanoma; HCC-2998 colon; OVCAR-3 ovarian.
Common to all, as to assay: NCI anticancer screen, dose series, 48 h

`COC(=O)NC1C(C)OC(OC2C/C=C(/C)C3C=CC4C(OC5CC(OC6CC(OC7CC(O)C(O)C(C)O7)C(OC7CC(O)C(OC)C(C)O7)C(C)O6)C(O)C(C)O5)C(C)CC(C)C4C3(C)/C(O)=C3\C(=O)OC4(CC(C)C(CO)=CC4/C=C\2C)C3=O)CC1(C)[N+](=O)[O-]` (centres undefined): the TGI in the experiment on SF-268 CNS was greater than 100 µM; with TK-10 renal, 40.6 µM; with SK-MEL-28 melanoma, 81.3 µM; with UACC-62 melanoma it was 17.8 µM; in the experiment on HL-60(TB) leukemia, 11.4 µM; with CCRF-CEM leukemia, 15.9 µM. Also, the TGI with COLO 205 colon was 36.2 µM; in the experiment on M14 melanoma, 77 µM; in the experiment with HCC-2998 colon, 18.9 µM.

As to `CC1(C=O)CCC23COC4(CCC5C6(C)CCC(OC7OCC(OC8OC(CO)C(O)C(OC9OC(CO)C(O)C(O)C9O)C8OC8OCC(O)C(O)C8O)C(O)C7OC7OC(CO)C(O)C(O)C7O)C(C)(C)C6CCC5(C)C4(C)CC2O)C3C1` (centres undefined), the TGI turned out to be 2.47 µM in the experiment with SF-268 CNS; 3.33 µM in the experiment with TK-10 renal; 3.17 µM in the experiment with UACC-62 melanoma; 1.41 µM in the experiment with HL-60(TB) leukemia; 0.789 µM in the experiment on CCRF-CEM leukemia; 2.56 µM in the experiment with COLO 205 colon. The TGI with M14 melanoma was 2.85 µM; in the experiment with HCC-2998 colon, 2.17 µM; with OVCAR-3 ovarian it was 2.79 µM.

For `COc1cc([N+](=O)[O-])ccc1N1C(=O)C2c3[nH]c4ccccc4c3C3CCC(C(C)(C)C)CC3C2C1=O` (centres undefined), the TGI is greater than 100 µM in the experiment with TK-10 renal; 34.7 µM in the experiment on SK-MEL-28 melanoma; greater than 100 µM in the experiment with UACC-62 melanoma; greater than 100 µM in the experiment with HL-60(TB) leukemia; greater than 100 µM with CCRF-CEM leukemia; greater than 100 µM in the experiment with COLO 205 colon. The TGI was 40.5 µM in the experiment on M14 melanoma, greater than 100 µM in the experiment on HCC-2998 colon and greater than 100 µM in the experiment on OVCAR-3 ovarian.

Turning to `CC1C(=O)C(C)C(c2ccco2)N(N=O)C1c1ccco1` (centres undefined), the TGI in the experiment with SF-268 CNS, with SK-MEL-28 melanoma, in the experiment with UACC-62 melanoma, with HL-60(TB) leukemia, in the experiment on CCRF-CEM leukemia and in the experiment with COLO 205 colon was greater than 100 µM throughout. The TGI in the experiment on HCC-2998 colon and with OVCAR-3 ovarian was greater than 100 µM each time.

Turning to `CCOC(=O)Nc1cc2c(c(N)n1)N=C(c1ccc3ccccc3c1)CN2`, the TGI in the experiment with SF-268 CNS is greater than 86.1 µM; in the experiment on TK-10 renal it was greater than 60.7 µM; in the experiment on SK-MEL-28 melanoma, greater than 100 µM; with UACC-62 melanoma it was 30.9 µM; with HL-60(TB) leukemia it was greater than 100 µM; with CCRF-CEM leukemia it was 0.0944 µM. Also, the TGI was 17.5 µM in the experiment with M14 melanoma, 1.47 µM with HCC-2998 colon and 10.7 µM in the experiment on OVCAR-3 ovarian.

For the compound `C[n+]1c2ccccc2c(CNC(CS)C(=O)O)c2ccccc21` (centres undefined), the TGI was greater than 100 µM with SF-268 CNS; greater than 100 µM in the experiment on TK-10 renal; 29.6 µM with UACC-62 melanoma; 43.4 µM with HL-60(TB) leukemia; 62.4 µM in the experiment with CCRF-CEM leukemia; 47.8 µM in the experiment with COLO 205 colon. The TGI in the experiment on M14 melanoma is greater than 100 µM; with HCC-2998 colon, greater than 100 µM; in the experiment on OVCAR-3 ovarian, 62 µM.

`CC1(O)COCCCCOc2c(CN)cccc2NC(=O)c2nc(cnc2N)-c2ccc(cc2)S(=O)(=O)C(C)(C)C1` (centres undefined): the GI50 in the experiment on SF-268 CNS is 1.51 µM; in the experiment on TK-10 renal it was 1.64 µM; in the experiment with SK-MEL-28 melanoma, 1.83 µM; with UACC-62 melanoma it was 1.86 µM; in the experiment on CCRF-CEM leukemia it was less than 0.01 µM; in the experiment with COLO 205 colon, 0.546 µM. For the same compound, the GI50 with HCC-2998 colon is 1.48 µM; in the experiment on OVCAR-3 ovarian, 1.23 µM. For the same compound, the TGI in the experiment on SF-268 CNS worked out at 3.19 µM; in the experiment on TK-10 renal, 3.34 µM; with SK-MEL-28 melanoma, 3.47 µM; in the experiment with UACC-62 melanoma it was 3.36 µM; in the experiment on CCRF-CEM leukemia it was 1.25 µM; with COLO 205 colon, 2.17 µM. For the same compound, the figures for the TGI with HCC-2998 colon and in the experiment with OVCAR-3 ovarian were 2.87 µM and 2.56 µM, respectively.

With `C[N+](C)(C)CCN[N+]1(C)CCCc2ccccc21` (centres undefined), the TGI in the experiment on SF-268 CNS, with TK-10 renal, in the experiment on SK-MEL-28 melanoma, in the experiment on UACC-62 melanoma, in the experiment on HL-60(TB) leukemia and with COLO 205 colon was greater than 100 µM each time. The TGI with M14 melanoma, with HCC-2998 colon and with OVCAR-3 ovarian was greater than 100 µM in each case.

Take `Cc1c2cc[n+](C)cc2c(C)c2c1oc1ccccc12`: the TGI with SF-268 CNS is 2.71 µM; with TK-10 renal, 98.8 µM; with SK-MEL-28 melanoma, 21.8 µM; in the experiment on UACC-62 melanoma it was 16.5 µM; in the experiment on HL-60(TB) leukemia, greater than 73.2 µM; with CCRF-CEM leukemia, 45.9 µM. Moreover, the TGI in the experiment on COLO 205 colon worked out at 14.8 µM; in the experiment on M14 melanoma, 31.5 µM; in the experiment with HCC-2998 colon, 12.3 µM; in the experiment on OVCAR-3 ovarian, 16.7 µM.

On to `Oc1ccc(-c2nc3cc(F)ccc3s2)cc1`, for which the TGI in the experiment on SF-268 CNS was 74 µM; with TK-10 renal it was 56 µM; with SK-MEL-28 melanoma, 42.8 µM; in the experiment on UACC-62 melanoma it was 36.4 µM; in the experiment with HL-60(TB) leukemia it was greater than 100 µM; in the experiment on CCRF-CEM leukemia, greater than 100 µM. The TGI in the experiment on COLO 205 colon was 33.9 µM; in the experiment on M14 melanoma, 47.6 µM; with HCC-2998 colon, 28.3 µM; in the experiment on OVCAR-3 ovarian, 41.5 µM.

Take `O=C(NC(Cc1ccc(I)cc1)C(=O)O)c1ccc(Cl)cc1` (centres undefined): the TGI in the experiment with SF-268 CNS, in the experiment on SK-MEL-28 melanoma, in the experiment with UACC-62 melanoma, in the experiment on HL-60(TB) leukemia, in the experiment on CCRF-CEM leukemia and in the experiment on COLO 205 colon was greater than 100 µM in each case. Moreover, the TGI in the experiment with HCC-2998 colon and in the experiment with OVCAR-3 ovarian was greater than 100 µM throughout.

For `CS(=O)(=O)OCCN(CCOS(C)(=O)=O)c1ccc(/C=N/Nc2ncnc3nc[nH]c23)cc1`, the TGI with SF-268 CNS was 46.1 µM; with TK-10 renal, 63.6 µM; in the experiment on SK-MEL-28 melanoma it was 63.4 µM; with UACC-62 melanoma, 27.8 µM; in the experiment on HL-60(TB) leukemia, 27.1 µM; in the experiment on CCRF-CEM leukemia it was greater than 100 µM. Further, the TGI in the experiment with COLO 205 colon worked out at 31.7 µM; with M14 melanoma, 34.1 µM; in the experiment on HCC-2998 colon, 39.5 µM; in the experiment with OVCAR-3 ovarian, 39.8 µM.

On to `N=C(N)SCc1cccc([N+](=O)[O-])c1`, for which the TGI in the experiment on SF-268 CNS is greater than 100 µM; in the experiment with SK-MEL-28 melanoma, 98.9 µM; in the experiment on UACC-62 melanoma, greater than 100 µM; in the experiment with HL-60(TB) leukemia, 43.6 µM; with CCRF-CEM leukemia, greater than 85.9 µM; with COLO 205 colon, 47.9 µM. For the same compound, the TGI is greater than 100 µM in the experiment with HCC-2998 colon and 39.9 µM in the experiment with OVCAR-3 ovarian.
